Data set [1] deals with HeLa cells. The experiment in a line: Quantitative determination of peptide uptake inside cells (bulk fluorescence of cell lysates). The format is cell-based. Particulars: 1-10 μM, 1 h. Here is the method:
HeLa cells were seeded in a 48 well dish, grown and washed as described above. For the peptide uptake experiment, each well was incubated for 1 h with varying concentration of acTAT, TAT or dTAT (range: 5-25 μM peptide concentration). For the titration experiment, cells were incubated with dTAT (5 μM) and varying concentrations of DEAC-K9 (range: 1-20 μM). Cells were then washed with PBS and nrL-15 and imaged. Multiple images for each condition were obtained and processed. To lyse cells, nrL-15 was removed from the wells and a total of 100 μL of HeLa cell lysis Buffer (50 mM Tris pH 7.5, 2 mM EDTA, 2 mM DTT, 0.1% Triton X-100) was incubated with cells for 5 min. The cells were lysed and scraped off the dish and pipetted into a 1.5 mL microcentrifuge tube. The cell lysates were centrifuged at 13.2K RPM for 25 min. […] The fluorescence from the cell lysates were measured using a plate reader equipped with a fluorescence module (Ex==525, Em=580-640 nm) (GloMax®-Multi+ Detection System, Promega, Fitchburg, Wis.). For the titration experiment, 80 μL of supernatant was diluted to a total volume of 100 μL and the bulk fluorescence was measured using a SLM-8000C fluorometer (Ex=435 nm, Em=465-475 nm) (SLM Instruments, Bath, UK). The fluorescence emission was averaged and recorded. […] The absorbance at 600 nm was measured using the plate reader. […]

Data set [2] deals with HeLa cells expressing SNAPH2B. As to the kind of experiment: Endosomal leakage efficiency with SNAP-Surface 488. Particulars: 2.5 μM dTAT with 5 μM SNAP-Surface 488, 1 h.
Protocol: HeLa cells were incubated with 5 μM SNAP-Surface® 488 for 1 h, washed and imaged. […] It should be noted that SNAP-Surface® 488 fluorescence is quenched (80%) before it reacts with the SNAP fusion tag.
HeLa cells were seeded in 8-well dishes, grown and washed as described in the prior section. Cells were then co-incubated with 5 M delivery peptide and with the cargo at the corresponding concentration for 1 h at 37° C. Cells were washed 3 times with PBS and nrL-15 and placed on the microscope. Images were acquired as described before. For transfection and expression of SNAP-H2B and TagCFP-mito, plasmids were mixed with Lipofectamine™ 2000 reagent in opti-MEM media and incubated at room temperature for 30 min. The DNA complex was added to previously seeded HeLa cells (80% confluent) on an 8-well dish and cells were kept at 37° C. for 24 h.
Data set [3] concerns Dorsal root ganglion F11 (DRG-F11) neuronal cells. As to the kind of experiment: dTAT penetration into cells resistant to transfection. Format: cell-based. Particulars: 5 μM, 1 hour. On the procedure: Dorsal root ganglion F11 (DRG-F11) neuronal cells are notoriously difficult to transfect. dTAT exposure was tested in DRG-F11 cells to determine whether the transfection difficulties also posed a barrier for dTAT. DRG-F11 cells were incubated for 1 hour with dTAT (5 μM).

The subject of data set [4] is HeLa or NIH 3T3 cells. The experiment in a line: dTAT-mediated delivery of EGFP by co-incubation. The format is cell-based. Particulars: EGFP 10 μM and dTAT 5 μM, 1 h. Here is the method: dTAT, DEAC-K9 and, SNAP-Surface® 488 are relatively small molecules. It was therefore addressed whether dTAT-mediated endosomal leakage could deliver large proteins into the cytosol of cells. For this assay, EGFP (26 kDa) was chosen as a model, since this protein is fluorescent only when properly folded. EGFP and dTAT were incubated for 1 h with cells and the protein distribution was examined by fluorescence. […] While protein degradation might take place during delivery, this assay establishes that a population of folded protein is delivered.
Images were acquired as described before.

The subject of data set [5] is HeLa cells. The experiment in a line: Delivery of peptides inside live cells, internalization assessed by fluorescence microscopy. The format is cell-based. Particulars: for cellular localization of peptide fluorescence: 1 h incubation. Here is the method:
The TAT, dTAT and acTAT peptides were incubated for 1 h with several cell lines and internalization was assessed by fluorescence microscopy. […] See also FIG. 5. […] The cell lines HeLa, NIH 3T3, COLO 316 and HaCaT were incubated with 5 μM dTAT for 1 h, washed and imaged. […] After imaging, cells were incubated at 37° C. in a humidified atmosphere containing 5% CO2 for 24 h, washed and imaged again. […] Cell viability was assessed by exclusion of the cell-impermeable nuclear stain SYTOX® Blue at both 1 h and 24 h time point. […] Inverted monochrome (black=fluorescence signal, white-no signal) fluorescence images were made of HeLa cells incubated with 10 or 20 μM of TAT for 1 h.
Live cells from different lines (HeLa, HaCat, NIH 3T3) were grown in Dulbecco's […] (DMEM) (Fisher) supplemented with 10% fetal bovine serum (FBS) (Fisher) and kept at 37° C. in a humidified atmosphere containing 5% CO2. Cells were then seeded in 8-well dishes so that the cells were 80%-90% confluent after 48 h. […] The media (nrL-15) used for incubation lacks cysteine to avoid reduction of the disulfide bond of dTAT. Cells were then incubated with different concentrations of the acTAT, TAT, or dTAT at 37° C. for 1 h. […] Images were collected using a Rolera-MGI Plus back-illuminated EMCCD camera (Qimaging, Surrey, BC, Canada). Images were acquired using bright field imaging and three standard fluorescence filter sets: CFP (Ex=436±10 nm/Em=480±20 nm), RFP (Ex=560±20 nm/Em=630±35 nm), and FITC (Ex=488±10 nm/Em=520±20 nm). The fluorescence intensities of different cells were measured with the SlideBook 4.2 software (Olympus, Center Valley, Pa.) and the average fluorescence intensity was determined for each condition. It has been previously reported that CPPs labeled with fluorophores such as TMR can photosensitize membranes and cause endosomal leakage upon light irradiation. See, Srinivasan, D. et al., “Conjugation to the cell-penetrating peptide TAT potentiates the photodynamic effect of carboxytetramethylrhodamine,” PloS one 6:e17732 (2011) and Muthukrishnan, N., et al., “Synergy Between Cell-Penetrating Peptides and Singlet Oxygen Generators Leads to Efficient Photolysis of Membranes,” Photochemistry and Photobiology 89:625-630 (2012), each incorporated herein by reference in its entirety. […] First, all delivery experiments were performed under conditions of minimal light irradiation (dark room with dim red light). When fluorescence imaging is required, probes (e.g., SNAP surface 488, EGFP) are imaged before dTAT is, thereby minimizing the possible effect of light on endosomal release. For experiments performed with Cre and Hoxb4, cells are not imaged and not exposed to light (not at all for Hoxb4, 12 h after incubation for Cre).

The record followed here is patent US9662404B2, “Compositions and methods for the delivery of molecules into live cells” (The Texas A&M University System, priority 2013, dated 2017).

Ends that are not written are not given here.

As for “(CK(TMR)TAT)2 (CK(TMR)RKKRRQRRRG; also: dimer) [dTAT, dimer of two CK(TMR)-TAT monomers linked via a disulfide bond between the N-terminal cysteine residues]”, the “overall amount of peptide inside cells (cytosol+endosomes), bulk fluorescence of lysates” value in data set [1] is “almost linearly correlated to the concentration of dTAT administered extracellularly”. Moreover, in data set [2], the cytosolic release result was “does not result in significant cytosolic release”. In data set [3], the “penetration into the cytosol” value is “penetrates into the cytosol of DRG-F11 cells”. Also, in data set [4], the “cells with EGFP distributed into the cytosol and nucleus” value is given as “more than 90%”; the “toxicity during EGFP delivery” value is on record as “without observable toxicity”. For the same substance, in data set [5] (5 μM), the “cells in which cytosolic delivery is observed” value is listed as “more than 95%”. Also, the “concentration range with dramatic increase in cytosolic delivery of the peptide” value in data set [5] (HeLa cells, dTAT 1-5 μM) was 2 to 5 µM. Besides, the “cellular localization of peptide fluorescence” value in data set [5] (above 5 μM) is “distributed in the cytosol and nucleus”. The “cellular localization of peptide fluorescence” value in data set [5] (below 2 μM) was “punctate”.
